According to PubChem BioAssay AID1259407 (Chemical Carcinogenesis Research Information System (CCRIS), 2018):
Activity calls are given as the source filed them. How the calls were made is not given here.

System: CCRIS mutagenicity, Ames/micronucleus/aberration tests
Test: CCRIS mutagenicity studies
[1] = Test System: AMES SALMONELLA TYPHIMURIUM, Strain/Indicator: TA100, Metabolic Activation: NONE, Method: STANDARD PLATE

## C=C1C[C@@]23CC[C@H]4[C@@](C)(CCC[C@@]4(C)C(=O)O[C@@H]4O[C@H](CO)[C@@H](O)[C@H](O)[C@H]4O)[C@@H]2CC[C@]1(O[C@@H]1O[C@H](CO)[C@@H](O)[C@H](O)[C@H]1O[C@@H]1O[C@H](CO)[C@@H](O)[C@H](O)[C@H]1O)C3
Test System: AMES SALMONELLA TYPHIMURIUM, Strain/Indicator: TA97, Metabolic Activation: NONE, Method: PREINCUBATION
  mutagenic call: inactive; negative
Test System: AMES SALMONELLA TYPHIMURIUM, Strain/Indicator: TA97, Metabolic Activation: RAT, LIVER, S-9, PCB, Method: PREINCUBATION
  mutagenic call: inactive; negative
Test System: AMES SALMONELLA TYPHIMURIUM, Strain/Indicator: TA98, Metabolic Activation: RAT, LIVER, S-9, PCB, Method: PREINCUBATION
  mutagenic call: inactive; negative
Test System: AMES SALMONELLA TYPHIMURIUM, Strain/Indicator: TA98, Metabolic Activation: RAT, LIVER, S-9, SODIUM PHENOBARBITAL AND 5,6-BENZOFLAVONE, Method: PREINCUBATION
  mutagenic call: active; positive
Test System: AMES SALMONELLA TYPHIMURIUM, Strain/Indicator: TA100, Metabolic Activation: NONE, Method: PREINCUBATION
  mutagenic call: inactive; negative
Test System: AMES SALMONELLA TYPHIMURIUM, Strain/Indicator: TA100, Metabolic Activation: RAT, LIVER, S-9, PCB, Method: PREINCUBATION
  mutagenic call: inactive; negative
Test System: AMES SALMONELLA TYPHIMURIUM, Strain/Indicator: TA100, Metabolic Activation: RAT, LIVER, S-9, SODIUM PHENOBARBITAL AND 5,6-BENZOFLAVONE, Method: PREINCUBATION
  mutagenic call: inactive; negative
Test System: AMES SALMONELLA TYPHIMURIUM, Strain/Indicator: TA102, Metabolic Activation: NONE, Method: PREINCUBATION
  mutagenic call: inactive; negative
Test System: AMES SALMONELLA TYPHIMURIUM, Strain/Indicator: TA102, Metabolic Activation: RAT, LIVER, S-9, PCB, Method: PREINCUBATION
  mutagenic call: inactive; negative
Test System: AMES SALMONELLA TYPHIMURIUM, Strain/Indicator: TA104, Metabolic Activation: NONE, Method: PREINCUBATION
  mutagenic call: inactive; negative
Test System: AMES SALMONELLA TYPHIMURIUM, Strain/Indicator: TA104, Metabolic Activation: RAT, LIVER, S-9, PCB, Method: PREINCUBATION
  mutagenic call: inactive; negative
Test System: AMES SALMONELLA TYPHIMURIUM, Strain/Indicator: TM677, Metabolic Activation: RAT, LIVER, S-9, AROCLOR 1254, Method: PREINCUBATION
  mutagenic call: inactive; negative

## CC[C@H]1OC(=O)[C@H](C)[C@@H](O[C@H]2C[C@@](C)(OC)[C@@H](O)[C@H](C)O2)[C@H](C)[C@@H](O[C@@H]2O[C@H](C)C[C@H](N(C)C)[C@H]2O)[C@](C)(O)C[C@@H](C)CN(C)[C@H](C)[C@@H](O)[C@]1(C)O
Test System: AMES SALMONELLA TYPHIMURIUM, Strain/Indicator: TA98, Metabolic Activation: MOUSE, LIVER, S-9, AROCLOR 1254, Method: STANDARD PLATE
  mutagenic call: inactive; negative
Test System: AMES SALMONELLA TYPHIMURIUM, Strain/Indicator: TA98, Metabolic Activation: MOUSE, LIVER, S-9, Method: STANDARD PLATE
  mutagenic call: inactive; negative
Test System: AMES SALMONELLA TYPHIMURIUM, Strain/Indicator: TA98, Metabolic Activation: NONE, Method: STANDARD PLATE
  mutagenic call: inactive; negative
Test System: AMES SALMONELLA TYPHIMURIUM, Strain/Indicator: TA98, Metabolic Activation: RAT, LIVER, S-9, AROCLOR 1254, Method: STANDARD PLATE
  mutagenic call: inactive; negative
Test System: AMES SALMONELLA TYPHIMURIUM, Strain/Indicator: TA98, Metabolic Activation: RAT, LIVER, S-9, Method: STANDARD PLATE
  mutagenic call: inactive; negative
Test System: AMES SALMONELLA TYPHIMURIUM, Strain/Indicator: TA100, Metabolic Activation: MOUSE, LIVER, S-9, AROCLOR 1254, Method: STANDARD PLATE
  mutagenic call: inactive; negative
Test System: AMES SALMONELLA TYPHIMURIUM, Strain/Indicator: TA100, Metabolic Activation: MOUSE, LIVER, S-9, Method: STANDARD PLATE
  mutagenic call: inactive; negative
[1]
  mutagenic call: inactive; negative
Test System: AMES SALMONELLA TYPHIMURIUM, Strain/Indicator: TA100, Metabolic Activation: RAT, LIVER, S-9, AROCLOR 1254, Method: STANDARD PLATE
  mutagenic call: inactive; negative
Test System: AMES SALMONELLA TYPHIMURIUM, Strain/Indicator: TA100, Metabolic Activation: RAT, LIVER, S-9, Method: STANDARD PLATE
  mutagenic call: inactive; negative
Test System: AMES SALMONELLA TYPHIMURIUM, Strain/Indicator: TA1535, Metabolic Activation: MOUSE, LIVER, S-9, AROCLOR 1254, Method: STANDARD PLATE
  mutagenic call: inactive; negative
Test System: AMES SALMONELLA TYPHIMURIUM, Strain/Indicator: TA1535, Metabolic Activation: MOUSE, LIVER, S-9, Method: STANDARD PLATE
  mutagenic call: inactive; negative
Test System: AMES SALMONELLA TYPHIMURIUM, Strain/Indicator: TA1535, Metabolic Activation: NONE, Method: STANDARD PLATE
  mutagenic call: inactive; negative
Test System: AMES SALMONELLA TYPHIMURIUM, Strain/Indicator: TA1535, Metabolic Activation: RAT, LIVER, S-9, AROCLOR 1254, Method: STANDARD PLATE
  mutagenic call: inactive; negative
Test System: AMES SALMONELLA TYPHIMURIUM, Strain/Indicator: TA1535, Metabolic Activation: RAT, LIVER, S-9, Method: STANDARD PLATE
  mutagenic call: inactive; negative
Test System: AMES SALMONELLA TYPHIMURIUM, Strain/Indicator: TA1537, Metabolic Activation: MOUSE, LIVER, S-9, AROCLOR 1254, Method: STANDARD PLATE
  mutagenic call: inactive; negative
Test System: AMES SALMONELLA TYPHIMURIUM, Strain/Indicator: TA1537, Metabolic Activation: MOUSE, LIVER, S-9, Method: STANDARD PLATE
  mutagenic call: inactive; negative
Test System: AMES SALMONELLA TYPHIMURIUM, Strain/Indicator: TA1537, Metabolic Activation: NONE, Method: STANDARD PLATE
  mutagenic call: inactive; negative
Test System: AMES SALMONELLA TYPHIMURIUM, Strain/Indicator: TA1537, Metabolic Activation: RAT, LIVER, S-9, AROCLOR 1254, Method: STANDARD PLATE
  mutagenic call: inactive; negative
Test System: AMES SALMONELLA TYPHIMURIUM, Strain/Indicator: TA1537, Metabolic Activation: RAT, LIVER, S-9, Method: STANDARD PLATE
  mutagenic call: inactive; negative
Test System: MOUSE LYMPHOMA, Strain/Indicator: L5178Y (TK+/TK-), Metabolic Activation: NONE, Method: SUSPENSION/PLATE
  mutagenic call: inactive; negative
Test System: MOUSE LYMPHOMA, Strain/Indicator: L5178Y (TK+/TK-), Metabolic Activation: RAT, LIVER, S-9, Method: SUSPENSION/PLATE
  mutagenic call: inactive; negative

## O=C(O)/C=C/Cl
Test System: AMES SALMONELLA TYPHIMURIUM, Strain/Indicator: TA97, Metabolic Activation: RAT, LIVER, S-9, PCB, Method: STANDARD PLATE
  mutagenic call: active; positive
Test System: AMES SALMONELLA TYPHIMURIUM, Strain/Indicator: TA102, Metabolic Activation: RAT, LIVER, S-9, PCB, Method: STANDARD PLATE
  mutagenic call: active; positive

## O=C1OC(=C(Cl)Cl)C(Cl)=C1Cl
[1]
  mutagenic call: active; positive

## ClCCBr
End Point: IN VITRO CHROMOSOMAL ABERRATIONS, Test System: CHL CELLS, Metabolic Activation: RAT, LIVER, S-9, SODIUM PHENOBARBITAL AND 5,6-BENZOFLAVONE
  mutagenic call: active; positive (structural changes)
Test System: AMES SALMONELLA TYPHIMURIUM, Strain/Indicator: TA1530, Metabolic Activation: NONE, Method: SPOT
  mutagenic call: active; positive
Test System: AMES SALMONELLA TYPHIMURIUM, Strain/Indicator: TA1535, Metabolic Activation: NONE, Method: SPOT
  mutagenic call: active; positive
